Like-named read-outs stand apart in the source and are kept apart here.
Assays:
BTK = target: T1, BTK (Homo sapiens, UniProt Q06187); test: BTK degradation in TMD-8 cells (HTRF assay); assay type: cell-based; details: 6 h treatment, IC50 (DC50) of BTK degradation
T1 construct: High control=Cell group with added DMSO and without compound, indicating microplate readings without BTK degradation; endogenous in cells; host or cells: TMD-8
Summary of the method: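 TMD-8 cells were exposed for 6 h to 8 compound doses (6-fold serial dilution, 0.2% DMSO). Lysed cells were incubated overnight at room temperature with HTRF antibodies and read at 665/620 nm. DC50 came from four-parameter fitting of % inhibition versus concentration.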

HEK-293 cells = test: HEK-293 cytotoxicity detection (CellTiter-Glo); assay type: cell-based; details: HEK-293 cells, 72 h incubation, CellTiter-Glo luminescence, IC50 of cell proliferation inhibition, read-out: HEK293
Summary of the method: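 HEK-293 cells exposed 72 h to an 8-point, 4-fold dilution series (top 500× stock 5 mM in DMSO; 0.2% DMSO final). Viability by CellTiter-Glo luminescence after 10 min at room temperature; IC50 from four-parameter Hill fit of percent inhibition.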

T1 sequence (Q06187 whole entry): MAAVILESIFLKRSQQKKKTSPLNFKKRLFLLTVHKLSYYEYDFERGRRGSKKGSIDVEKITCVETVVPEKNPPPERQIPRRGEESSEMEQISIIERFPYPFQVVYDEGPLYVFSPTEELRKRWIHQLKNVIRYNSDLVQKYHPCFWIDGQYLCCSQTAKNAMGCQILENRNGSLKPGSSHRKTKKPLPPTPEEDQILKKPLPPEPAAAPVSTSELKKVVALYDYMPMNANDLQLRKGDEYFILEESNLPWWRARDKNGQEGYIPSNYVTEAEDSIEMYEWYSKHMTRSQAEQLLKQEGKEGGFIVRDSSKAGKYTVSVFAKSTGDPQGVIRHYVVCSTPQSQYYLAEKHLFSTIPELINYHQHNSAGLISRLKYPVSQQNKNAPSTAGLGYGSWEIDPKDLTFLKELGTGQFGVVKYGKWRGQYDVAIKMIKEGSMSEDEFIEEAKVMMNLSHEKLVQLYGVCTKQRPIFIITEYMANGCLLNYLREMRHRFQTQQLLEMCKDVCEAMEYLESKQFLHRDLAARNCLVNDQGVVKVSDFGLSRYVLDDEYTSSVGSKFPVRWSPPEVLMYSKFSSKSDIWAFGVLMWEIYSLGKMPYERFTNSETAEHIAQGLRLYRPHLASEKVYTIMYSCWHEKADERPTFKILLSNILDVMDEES

SMILES | DC50 (BTK) [nM] | IC50 (HEK-293 cells; Homo sapiens) [nM] | IC50 (HEK-293 cells) [nM]
Cc1cc(-c2ncnc3[nH]c4cc(N5CCC6(CC5)CCN(C5CC(c7ccc(NC8CCC(=O)NC8=O)cc7)C5)C6)ccc4c23)ccc1[C@@H](C)NC(=O)c1nc(C(C)(C)C)no1 (stereo partly drawn) [Example 103, 3-(tert-butyl)-N-((1R)-1-(4-(7-(2-(3-(4-((2,6-dioxopiperidin-3-yl)amino)phenyl)cyclobutyl)-2,8-diazaspiro[4.5]decan-8-yl)-9H-pyrimido[4,5-b]indol-4-yl)-2-methylphenyl)ethyl)-1,2,4-oxadiazole-5-carboxamide] | 3.05 | 1060 | –
Cc1cc(-c2ncnc3[nH]c4cc(CN5CCN(CC6CCN(c7ccc(N8CCC(=O)NC8=O)cc7)CC6)CC5)ccc4c23)ccc1[C@@H](C)NC(=O)c1nc(C(C)(C)C)no1 [Example 104, (R)-3-(tert-butyl)-N-(1-(4-(7-((4-((1-(4-(2,4-dioxotetrahydropyrimidin-1(2H)-yl)phenyl)piperidin-4-yl)methyl)piperazin-1-yl)methyl)-9H-pyrimido[4,5-b]indol-4-yl)-2-methylphenyl)ethyl)-1,2,4-oxadiazole-5-carboxamide] | 1.16 | > 10000 | –
Cc1cc(-c2ncnc3[nH]c4cc(CCN5CCN(C6CN(c7ccc(N8CCC(=O)NC8=O)cc7)C6)CC5)ccc4c23)ccc1[C@@H](C)NC(=O)c1nc(C(C)(C)C)no1 [Example 105, (R)-3-(tert-butyl)-N-(1-(4-(7-(2-(4-(1-(4-(2,4-dioxotetrahydropyrimidin-1(2H)-yl)phenyl)azetidin-3-yl)piperazin-1-yl)ethyl)-9H-pyrimido[4,5-b]indol-4-yl)-2-methylphenyl)ethyl)-1,2,4-oxadiazole-5-carboxamide] | 0.512 | > 10000 | –
Cc1cc(-c2ncnc3[nH]c4cc(CCN5CCN(c6ccc(N7CCC(=O)NC7=O)cc6)CC5)ccc4c23)ccc1[C@@H](C)NC(=O)c1nc(C(C)(C)C)no1 [Example 106, (R)-3-(tert-butyl)-N-(1-(4-(7-(2-(4-(4-(2,4-dioxotetrahydropyrimidin-1(2H)-yl)phenyl)piperazin-1-yl)ethyl)-9H-pyrimido[4,5-b]indol-4-yl)-2-methylphenyl)ethyl)-1,2,4-oxadiazole-5-carboxamide] | 0.324 | > 10000 | –
Cc1cc(-c2ncnc3[nH]c4cc(N5CCC6(CC5)CCN(C5CC(c7ccc(N[C@@H]8CCC(=O)NC8=O)cc7)C5)CC6)ccc4c23)ccc1[C@@H](C)NC(=O)c1nc(C(C)(C)C)no1 (stereo partly drawn) [Example 107, 3-(tert-butyl)-N—((R)-1-(4-(7-(9-((1S,3r)-3-(4-(((S)-2,6-dioxopiperidin-3-yl)amino)phenyl)cyclobutyl)-3,9-diazaspiro[5.5]undecan-3-yl)-9H-pyrimido[4,5-b]indol-4-yl)-2-methylphenyl)ethyl)-1,2,4-oxadiazole-5-carboxamide] | 2.99 | – | 1030
Cc1cc(-c2ncnc3[nH]c4cc(N5CCC6(CC5)CCN(C5CC(c7ccc(N[C@H]8CCC(=O)NC8=O)cc7)C5)CC6)ccc4c23)ccc1[C@@H](C)NC(=O)c1nc(C(C)(C)C)no1 (stereo partly drawn) [Example 108, 3-(tert-butyl)-N-((1R)-1-(4-(7-(9-((1s,3s)-3-(4-((2,6-dioxopiperidin-3-yl)amino)phenyl)cyclobutyl)-3,9-diazaspiro[5.5]undecan-3-yl)-9H-pyrimido[4,5-b]indol-4-yl)-2-methylphenyl)ethyl)-1,2,4-oxadiazole-5-carboxamide] | 2.64 | – | 949
Cc1cc(-c2ncnc3[nH]c4cc(N5CCC6(CC5)CCN([C@H]5C[C@H](c7ccc(N[C@@H]8CCC(=O)NC8=O)cc7)C5)CC6)ccc4c23)ccc1[C@@H](C)NC(=O)c1nc(C(C)(C)C)no1 [Example 109, 3-(tert-butyl)-N—((R)-1-(4-(7-(9-((1R,3r)-3-(4-(((R)-2,6-dioxopiperidin-3-yl)amino)phenyl)cyclobutyl)-3,9-diazaspiro[5.5]undecan-3-yl)-9H-pyrimido[4,5-b]indol-4-yl)-2-methylphenyl)ethyl)-1,2,4-oxadiazole-5-carboxamide] | 6.07 | 1010 | –

Now from value to compound, other results behind:

DC50 (BTK) [nM] | SMILES | IC50 (HEK-293 cells; Homo sapiens) [nM] | IC50 (HEK-293 cells) [nM]
1.25 | Cc1cc(-c2ncnc3[nH]c4cc(N5CCC6(CC5)CCN([C@H]5C[C@H](c7ccc([C@@H]8CCC(=O)NC8=O)cc7)C5)CC6)ccc4c23)ccc1[C@@H](C)NC(=O)c1nc(C(C)(C)C)no1 [Example 110, 3-(tert-butyl)-N—((R)-1-(4-(7-(9-((1S,3r)-3-(4-((S)-2,6-dioxopiperidin-3-yl)phenyl)cyclobutyl)-3,9-diazaspiro[5.5]undecan-3-yl)-9H-pyrimido[4,5-b]indol-4-yl)-2-methylphenyl)ethyl)-1,2,4-oxadiazole-5-carboxamide] | 2000 | –
2.89 | Cc1cc(-c2ncnc3[nH]c4cc(N5CCC6(CC5)CCN([C@H]5C[C@@H](c7ccc([C@@H]8CCC(=O)NC8=O)cc7)C5)CC6)ccc4c23)ccc1[C@@H](C)NC(=O)c1nc(C(C)(C)C)no1 [Example 111, 3-(tert-butyl)-N—((R)-1-(4-(7-(9-((1R,3s)-3-(4-((S)-2,6-dioxopiperidin-3-yl)phenyl)cyclobutyl)-3,9-diazaspiro[5.5]undecan-3-yl)-9H-pyrimido[4,5-b]indol-4-yl)-2-methylphenyl)ethyl)-1,2,4-oxadiazole-5-carboxamide] | 1370 | –
2.47 | Cc1cc(-c2ncnc3[nH]c4cc(N5CCC6(CC5)CCN([C@H]5C[C@H](c7ccc([C@H]8CCC(=O)NC8=O)cc7)C5)CC6)ccc4c23)ccc1[C@@H](C)NC(=O)c1nc(C(C)(C)C)no1 [Example 112, 3-(tert-butyl)-N—((R)-1-(4-(7-(9-((1R,3r)-3-(4-((R)-2,6-dioxopiperidin-3-yl)phenyl)cyclobutyl)-3,9-diazaspiro[5.5]undecan-3-yl)-9H-pyrimido[4,5-b]indol-4-yl)-2-methylphenyl)ethyl)-1,2,4-oxadiazole-5-carboxamide] | 1890 | –
3.46 | Cc1cc(-c2ncnc3[nH]c4cc(N5CCC6(CC5)CCN([C@H]5C[C@@H](c7ccc([C@H]8CCC(=O)NC8=O)cc7)C5)CC6)ccc4c23)ccc1[C@@H](C)NC(=O)c1nc(C(C)(C)C)no1 [Example 113, 3-(tert-butyl)-N—((R)-1-(4-(7-(9-((1S,3s)-3-(4-((R)-2,6-dioxopiperidin-3-yl)phenyl)cyclobutyl)-3,9-diazaspiro[5.5]undecan-3-yl)-9H-pyrimido[4,5-b]indol-4-yl)-2-methylphenyl)ethyl)-1,2,4-oxadiazole-5-carboxamide] | 1120 | –
1.89 | Cc1cc(-c2ncnc3[nH]c4cc(N5CCC6(CCN(CC7CCN(c8ccc(N9CCC(=O)NC9=O)cc8)CC7)CC6)CC5)ccc4c23)ccc1[C@@H](C)NC(=O)c1nc(C(C)(C)C)no1 [Example 114, (R)-3-(tert-butyl)-N-(1-(4-(7-(9-((1-(4-(2,4-dioxotetrahydropyrimidin-1(2H)-yl)phenyl)piperidin-4-yl)methyl)-3,9-diazaspiro[5.5]undecan-3-yl)-9H-pyrimido[4,5-b]indol-4-yl)-2-methylphenyl)ethyl)-1,2,4-oxadiazole-5-carboxamide] | 923 | –

Source: patent US20240366770A1, “DEGRADATION OF BRUTON'S TYROSINE KINASE (BTK) BY CONJUGATION OF BTK INHIBITORS WITH E3 LIGASE LIGAND AND METHODS OF USE” (BeiGene Switzerland GmbH, priority 2021, published 2024)
